{"source": "patent EP2987482A1", "about": "(Santa Farma Ilaç Sanayi A.S., priority 2014, dated 2016)", "key": {"[1]": {"details": "cited from earlier work"}, "[2]": {"assay": "pH of media after dissolving the composition in water", "type": "physicochemical", "details": "magnetic stirrer for 3 minutes"}}}
{"substance": "4-[3,5-bis(2-hydroxyphenyl)-[1,2,4]triazol-1-yl]benzoic acid [deferasirox]", "values": [{"measurement": "permeability", "setting": "[1]", "result": "good permeability"}, {"measurement": "pH of media", "setting": "[2]; composition with 500 mg deferasirox and 40 mg sodium carbonate", "result": 8.13}, {"measurement": "pH of media", "setting": "[2]; composition with 500 mg deferasirox and 60 mg sodium carbonate", "result": 8.33}, {"measurement": "pH of media", "setting": "[2]; composition with 500 mg deferasirox and 80 mg sodium carbonate", "result": 8.44}, {"measurement": "pH of media", "setting": "[2]; composition with 500 mg deferasirox and 100 mg sodium carbonate", "result": 8.65}, {"measurement": "pH of media", "setting": "[2]; composition with 500 mg deferasirox and 120 mg sodium carbonate", "result": 8.77}, {"measurement": "pH of media", "setting": "[2]; composition with 500 mg deferasirox and 140 mg sodium carbonate", "result": 8.84}, {"measurement": "pH of media", "setting": "[2]; composition with 500 mg deferasirox and 160 mg sodium carbonate", "result": 8.91}]}
